In patent publication US20090143335A1, “MODIFIED ABSORPTION FORMULATION OF GABOXADOL” (H. LUNDBECK A/S, priority 2007, published 2009):

Assays:
[1] = Pharmacokinetics of gaboxadol in rats after PO dosing, with or without 5-HTP pre-incubation; type: in vivo, Sprague-Dawley rats; details: rat; for Cmax: Cmax ± S.E.M.; for Tmax: Tmax ± S.E.M.
Experimental: (§1) The pharmacokinetics (PK) was evaluated in WinNonlin. Plasma concentrations curves of the animals dosed intravenously were fitted to a 2-compartment model whereas the data from animals dosed orally were analysed in a non-compartment model. Statistical analysis was done in Sigma Stat.
(§2) Gaboxadol was extracted from plasma and HBSS^+ samples by liquid extraction. 100 μl HBSS^+ (80 μl purified water were added to the 20 μl samples) or 100 μl plasma samples were mixed with 25 μl intern standard (d4-gaboxadol) and 25 μl purified water. Protein precipitation was carried out by addition of 400 μl cold acetonitrile. After centrifugation at 10,000 g in 15 minutes, 425 μl supernatant was transferred to glass tubes and evaporated to dryness under nitrogen at 45° C. The samples were re-solved in 80 μl methanol/acetonitrile (30:70), whirl mixed for 10 minutes and centrifuged in 3 minutes at 3000 rpm, before transferal to medium well plates and placed at 10° C. in the autosampler. Gaboxadol concentration in the extracted samples was subsequently quantified by hydrophilic interaction chromatography (HILIC-chromatography) followed by MS/MS detection. The LC system comprised of an Agilent 1100 series pump and degasser, a CTC Analytics interface transferred data to the computer and a Peltier Thermostat and HTC Pal autosampler handled the samples. An Asahipak amino column, (NH2P-50, 150×2 mm) from Phenomenex was used for the chromatographic separation with a mobile phase of 20.0 mM ammoniumacetat pH=4:acetonitrile (30:70) and a flow rate of 0.2 ml/min. 20 μL samples were injected onto the column, which was kept at room temperature. The total runtime was 10 minutes with the first 5 minutes of elution let to waste. The elution time of gaboxadol on the column was approximately 8 minutes. The MS/MS system used consisted of a Sciex API 4000 MS/MS detector with a Turbo Ion Spray and Turbo V source (Applied Biosystems). The detection was performed in negative ionization mode where gaboxadol (precursor 139.1 Da, product 110.1 Da) and d4-gaboxadol (precursor 143.0, product 112.2 Da) were measured by multiple-reaction-monitoring (MRM). The signals were linear between 0.5 and 2500.0 ng/ml and the limit of quantification by this procedure was 0.5 ng/ml. The software was from Analyst™ (Applied Biosystem, version 4.0).
0.05 or 0.5 mg gaboxadol as well as 0.0 or 20.0 mg 5-HTP was dissolved in purified water pr ml. at room temperature and placed on ice in ultrasound for 10 min. The formulations were adjusted to pH 4-5 and with NaOH/HCl and made isotonic by addition of mannitol. pH of all solutions was adjusted to pH above 4.0 and below 5.0, the osmolality was adjusted with mannitol to 280 mmol/kg.
(§3) Male Sprague-Dawley rats (Charles River Laboratories, Wilmington, Mass., USA) of 220-240 gram were housed and acclimated for 7 days before entering the experiments. The rats were maintained on standard food and water until 16-20 hours prior to dosing when food was retrieved to insure complete gastric emptying before experiments were conducted. Water was available to the animals until beginning of experiment and again 2 hours after. Each animal was randomly assigned to receive either one of the intravenous or oral formulations.
6 parallel groups of rats (n=6) were given isotonic solutions of 0.5 or 5.0 mg/kg of gaboxadol together with saline or 200.0 mg/kg 5-HTP, by oral gavage (10.0 ml/kg). The suspensions of 5-HTP were given as a pre-incubation 30 min. prior to the gaboxadol solutions.
(§4) Blood samples of 0.2 ml were taken from the tail vein by individual vein puncture and collected into plasma collection tubes containing 20 IE heparin. Samples were collected at 5, 15, 30, 45, 60 minutes and after 2, 3, 4, 6, 8 hours after gaboxadol administration. The plasma was harvested immediately by centrifugation for 10 min. at 3.600 g and stored at −80° C. until further analysis.

[2] = Pharmacokinetics of gaboxadol in rats after IV dosing, with or without 5-HTP pre-incubation; type: in vivo, Sprague-Dawley rats; details: rat; for Ke ± S.E.M.: IV gaboxadol 2.5 mg/kg
Experimental: as §1, §2, §3, §4
0.25 mg gaboxadol as well as 0.0 or 10.0 mg 5-HTP was dissolved in purified water pr ml. at room temperature and placed on ice in ultrasound for 10 min. The solutions of gaboxadol used for intravenous injection was filtered through a 0.45 μm filter.
Animals were administered with 100.0 mg/kg 5-HTP or saline by oral gavage 30 min. prior to intravenous injection of 2.5 mg/kg gaboxadol into the tail vein […].

[3] = male, Sprague-Dawley, in vivo, po
[4] = male, Sprague-Dawley, in vivo, po, 0.5 mg/kg
[5] = male, Sprague-Dawley, in vivo, po, 5 mg/kg
[6] = male, Sprague-Dawley, in vivo, iv, 2.5 mg/kg

Oc1noc2c1CCNC2 [gaboxadol, 4,5,6,7-tetrahydroisoxazolo [5,4-c]pyridine-3-ol]
Tmax ± S.E.M. [1, 3]: 43 min
Cmax ± S.E.M. [1, 4]: 294 ± 39.4 ng/mL
Cmax [1, 4]: 273 ± 26.7 ng/mL
Tmax [1, 4]: 16 min
Cmax ± S.E.M. [1, 5]: 1854 ± 509.4 ng/mL
Cmax [1, 5]: 2060 ± 153 ng/mL
Tmax [1, 5]: 20 min
Tmax [1, 3]: 63 min
AUC increase compared to the control group ([1]; PO gaboxadol 0.5 mg/kg with 5-HTP 200 mg/kg vs without): 540%
AUC increase compared to the control group ([1]; PO gaboxadol 5.0 mg/kg with 5-HTP 200 mg/kg vs without): 330%
gaboxadol elimination rate constant when 5-HTP was present, relative to control ([1]; PO gaboxadol, 5-HTP 200 mg/kg): about 25%
AUC-dose-linearity: AUC of group J relative to group G ([1]; in vivo, 5 mg/kg): ~10 times
Ke ± S.E.M. ([1]; treatment G, PO gaboxadol 0.5 mg/kg, no 5-HTP): 0.0164 ± 0.0021 min⁻¹
Ke ± S.E.M. ([1]; treatment H, PO gaboxadol 0.5 mg/kg, 5-HTP 200.0 mg/kg 30 min before): 0.0038 ± 0.0004 min⁻¹
Ke ± S.E.M. ([1]; treatment I, PO gaboxadol 5.0 mg/kg, no 5-HTP): 0.0199 ± 0.0017 min⁻¹
Ke ± S.E.M. ([1]; treatment J, PO gaboxadol 5.0 mg/kg, 5-HTP 200.0 mg/kg 30 min before): 0.0058 ± 0.0008 min⁻¹
Cmax ± S.E.M. [2, 6]: 4109 ± 302.6 ng/mL
T1/2 [2, 6]: 44 min
Tmax [2, 6]: 5 min
Tmax ± S.E.M. [2, 6]: 5 ± 0.0 min
Cmax ([2]; male, Sprague-Dawley, in vivo, iv, 2.5 mg/kg, Cmax ± S.E.M.): 2850 ± 312 ng/mL
half-life ([2]; male, Sprague-Dawley, in vivo, iv, 2.5 mg/kg, T1/2): 26 min
AUC-dose-linearity: AUC of group G relative to group K ([2]; in vivo): five times
AUC of group K relative to group L ([2]; in vivo, iv, 2.5 mg/kg): ~3 times
Ke ± S.E.M. ([2]; treatment K, no 5-HTP): 0.0266 ± 0.0008 min⁻¹
Ke ± S.E.M. ([2]; treatment L, 5-HTP 100 mg/kg by oral gavage 30 min prior): 0.0181 ± 0.0030 min⁻¹
